The values that follow come from a melting point compilation (Tetko et al.; mined from patent text by program, amines drawn as free bases though some values may be those of a salt).

`CSc1cc(-c2ccc(C(F)(F)F)cc2)ccc1C#N` displayed a melting point of 128 to 129 °C.
In turn, `CCOC(=O)C1=CC(C2CC2)c2nc3cc(F)c(F)cc3nc2C1=O` (stereo not drawn) yielded a melting point of 230 °C.
The figure for `COC1=C(OC)C(=O)C2=C(CCC(CCOc3ccc(C)cc3)CC2)C1=O` is 56 to 57 °C; for `O=C1c2ccc(SCc3ccccc3)cc2C(=O)c2cc3ccccc3cc21` it is 200 to 203 °C; for `CC(=O)OC1CC2C=CC3C4CCC(C(C)CCCC(C)C)C4(C)CCC3C2(C)C(OC(C)=O)C1` (stereo not drawn) it is 116 to 118 °C.
Then `O=C1N(c2c(Cl)cccc2Cl)Cc2cnc(NCC3CCCCC3)nc2N1c1ccccc1`, with 229 to 233 °C; and `CC(=O)N1CCN2C(=O)N(c3cc(Cl)cc(Cl)c3)C(=O)C2(Cc2ccc(Br)cc2)C1` (stereo not drawn), with 89.6 °C.
As to `C[C@@H](Nc1c(Nc2ccc(C#N)c(Cl)c2)c(=O)c1=O)C(C)(C)C`, the melting point is more than 300 °C.
Then `Cc1cc(-c2c[nH]c(C)n2)ccn1`, with 115 to 117 °C; and `O=C(OCC(Cl)(Cl)Cl)c1ncn2c1CN=C(c1ccccc1)c1cc(Br)ccc1-2`, with 113 to 116 °C; and `CCOCc1nc2c(N)nc3ccccc3c2n1CC1(O)CCC2(CC1)OCCO2`, with 207 to 209 °C.
The figure for `COc1ccc(NN=C2CCC3(CC2)OCCO3)cc1` is 168 to 169 °C; for `CCOC(=O)C#CC(C)(C)OC(N)=O` it is 111 to 114 °C; for `CCCCCCCCc1ccccc1CCC(NC(C)=O)(C(=O)OCC)C(=O)OCC` it is 37 to 38 °C.
As for `CCOC(=O)c1nc2c(=O)[nH]c3cc(C(F)(F)F)ccc3n2c1CNc1ccc2c(c1)OCO2`, the melting point is more than 250 °C.
The figure for `Clc1ccc2c(c1)C(c1ccccc1)=NCc1n[nH]cc1-2` is 241 to 243 °C; for `CCOC(=O)c1cc(C)c(Cl)nc1Nc1ccc(I)cc1` it is 144 to 146 °C.
In turn, `COc1ccc(C2(Cn3ccnc3)CC(CNc3ccccc3C)ON2C)cc1` (stereo not drawn) displayed a melting point of 110 to 111 °C.
The figure for `O=C(CCCCN1CCCCC1)NNC(=O)N1Cc2ccccc2Oc2ccc(Cl)cc21` is 126 to 128 °C.
Take `CC(NC(=O)C(O)c1cc(F)cc(F)c1)C(=O)NC1C(=O)N(C)c2ccccc2N(c2ccccc2)C1=O` (stereo not drawn): the melting point lay within 212 to 213 °C.
Turning to `CS(=O)(=O)c1cc([N+](=O)[O-])c(C(=O)O)cc1N(CCBr)CCBr`, the melting point was 174 to 176 °C.
On to `COC(=O)Nc1cccc2c1C(=O)c1c-2n[nH]c1-c1ccc(OC)cc1`, for which the melting point was more than 300 °C.
The figure for `O=C1CCC(c2ccc(-c3ccc(Cl)cc3)o2)O1` (stereo not drawn) is 100 to 101 °C.
Then `CCOCc1nc2c(N)nc3ccccc3c2n1NCC(C)C`, with 137 to 140 °C; and `CC#CCN(C)c1ccc(OC23CC4CC(CC(C4)C2)C3)cc1`, with 180 to 181 °C.
`COc1cc(C(F)(F)F)cc(OC)n1` gave a melting point of 26 to 27 °C.
On to `Cc1c(NC(=O)c2cc3c(s2)CCCC3)cccc1-c1cc(N)c(=O)n(C)c1`, for which the melting point lay within 210 to 211 °C.
Then `COc1ccc2c(c1)C(=O)C(C)(C)C(=O)N2`, with 169 to 170 °C; and `CC(Oc1ccc(Cl)cc1Cl)c1nnc(N=C=O)s1` (stereo not drawn), with 176 to 179 °C; and `Cn1ccnc1N1CCC(c2ccc([N+](=O)[O-])cc2)CC1`, with 155 to 156 °C.
In turn, `CN1CCC(NC(=O)Nc2ccccc2CCc2cc(C(C)(C)C)c(O)c(C(C)(C)C)c2)CC1` came in with a melting point of 193 to 195 °C.
In the case of `Cc1oc(-c2ccccc2)nc1CC=Cc1ccc(CC2OC(=O)NC2=O)cc1` (stereo not drawn), the melting point was in the range of 168 to 169 °C.
Compound `CCOC(=O)c1cc(CC(C)(C)NC(=O)OC(C)(C)C)n(CCOC)n1` gave a melting point of 92 to 93 °C.
Compound `O=C(O)c1cc(S)c(Cl)cc1Cl` returned a melting point of 254 to 255 °C.
In turn, `COC(=O)c1cc2n(c1)CCCC2` yielded a melting point of 72 to 74 °C.
Then `CC1CC(=O)NN=C1c1ccc(N2CCN(Cc3ccccc3)CC2)c([N+](=O)[O-])c1` (stereo not drawn), with 220 to 221 °C; and `O=C1c2cccc3c(F)ccc(c23)C(=O)N1O`, with 257 to 261 °C.
The compound `CCN(CC)C(=O)COc1ccc(C(=O)CBr)cc1OC` registered a melting point of 101 to 103 °C.
Then `O=C(Nc1ccc(CCc2ccc(Cl)c(Cl)c2)cc1)C1CSc2ccccc2C1=O` (stereo not drawn), with 234 to 236 °C; and `Clc1ccc2c(c1)N=C(N1CCNCC1)c1nccn1C2`, with 120 to 123 °C.
The figure for `CCc1nc2c(N)nc3ccccc3c2n1CC1(O)CCSCC1` is more than 250 °C; for `COC(=O)c1cc2sccc2nc1C(=O)OC` it is 121 to 124 °C; for `Cc1ccc(CCOCC(=O)O)cc1` it is 65 to 67 °C.
Then `CC(C)(CO)CNc1cc(C(c2cc(F)ccc2F)S(=O)(=O)c2ccc(Cl)cc2)c(Cl)cn1` (stereo not drawn), with 176 to 178 °C.
`Cc1cc(-c2nnn(C)n2)cc(C)c1OCCCCc1nccn1C` had a melting point of 100 to 102 °C.
Then `CCOC(=O)c1c(C)nc(S)c([N+](=O)[O-])c1NCCCN(C)C`, with 131 to 132 °C; and `Cc1cc(N)cc(C)c1S(=O)(=O)C[N+](=O)[O-]`, with 132 to 133 °C; and `Cc1ccc(-c2cc3cc(C(=O)O)ccc3o2)cc1`, with 279 to 283 °C.
On to `CCc1ccnc(C(=O)c2[nH]c3ccc(Cl)cc3c2CC(=O)O)c1`, for which the melting point was in the range of 217 to 218 °C.
Then `O=C(O)C1=Cc2cc(Cl)cc(I)c2OC1C(F)(F)F` (stereo not drawn), with 220 to 223 °C; and `FC(F)(F)c1cccc(N2CCC(N=Cc3ccccn3)=N2)c1`, with 156 °C.
Then `CN1CCN(c2ccc(-c3nc4c(N[C@H]5[C@@H](C(N)=O)[C@@H]6C=C[C@H]5C6)ccnc4[nH]3)cc2)CC1`, with 220 to 222 °C; and `NC(=O)C1CN(c2c(F)cc3c(=O)c(C(=O)O)cn(C4CC4)c3c2F)C1`, with 295 to 298 °C; and `N#CCSC(C(=O)O)c1ccccc1` (stereo not drawn), with 110 to 112 °C.
On to `O=C(Nc1ccc(C2=CCN(Cc3ccccc3)CC2)cc1)c1ccccc1-c1ccccc1`, for which the melting point turned out to be 142 °C.
Then `Cc1ccc(=S)n(-c2cccc(C(F)(F)F)c2)c1`, with 96 °C; and `Cc1cc(C)c(-c2nc(Cl)nc(Cl)n2)c(C)c1`, with 85 to 91 °C.
The figure for `CC(C)c1cn(C(C)(C)C(=O)N(C)C)nc1-c1ccccc1Cl` is 86 to 88 °C.
On to `Fc1ccc(-c2[nH]nc(-c3ccccc3)c2-c2ccncc2)cc1`, for which the melting point fell in the range of 265 to 267 °C.
Then `O=[N+]([O-])C1(F)C=C(OCC2CCCSC2)C(Cl)=CC1` (stereo not drawn), with 100 to 103 °C; and `O=C(NCCSSCCNC(=O)c1ccc(OC(F)(F)F)cc1)c1ccc(OC(F)(F)F)cc1`, with 150 to 151 °C; and `CC(=O)N1CCCCNC1=NC(c1ccccc1)c1ccccc1`, with 250 to 252 °C.
The figure for `COc1cc(OCc2ccccn2)ccc1/C=C/C(=O)CC(=O)/C=C/c1ccc2ccn(C)c2c1` is 191 to 192 °C.
`O=C(O)c1cnn2c(C(F)(F)F)cc(-c3ccc(C(F)(F)F)cc3)cc12` gave a melting point of more than 250 °C.
On to `Cc1cc(SC(C)C)c(NC(=O)CN2CCN(CCSc3nc4cccc([N+](=O)[O-])c4o3)CC2)c(SC(C)C)n1`, for which the melting point fell in the range of 57 to 59 °C.
Consider `Cc1c(CC(=O)OCCO[N+](=O)[O-])cc(-c2ccc(S(C)(=O)=O)cc2)n1-c1ccc(F)cc1`, for which the melting point fell in the range of 110 to 112 °C.
The figure for `CCCCOC(=O)CNC(=O)c1ncc(C(=O)OCCCC)cc1OC` is 80 to 81 °C; for `O=C(Nc1ccc(C(=O)N2CCC=Cc3ccccc32)cc1)c1ccccc1Cl` it is 205 to 207 °C.
`NC(=O)N1Cc2c(-c3ccc(F)cc3)ncn2-c2ccccc21`: the melting point was in the range of 222 to 223 °C.
Take `CS(=O)(=O)Nc1ccc(CCCOCCCCCCNCC(O)c2cc(Cl)c(N)c(Cl)c2)cc1` (stereo not drawn): the melting point was in the range of 62 to 64 °C.
`COC[C@@H]1CCCN1S(=O)(=O)c1ccc2c(c1)C(=O)C1=NCCCN12` returned a melting point of 138 to 141 °C.
The figure for `CCCCCCCNC(=O)Nc1ccc(N(C)C)cc1C(=O)NCC1CCCN(C(c2ccccc2)c2ccccc2)C1` (stereo not drawn) is 142 to 144 °C; for `CCCCCCCCCCCCc1ccc(COc2cc(C(=O)O)nc3ccc(C)cc23)cc1` it is 95 to 96 °C.
Then `CC12CCC(C(=NO)C1=O)C(C)(C)O2` (stereo not drawn), with 158 to 159 °C; and `CN1C(=O)CC[C@]2(C)c3ccc(C(=O)Oc4ccccc4)cc3CC[C@@H]12`, with 194 to 196 °C.
Take `COc1ccc(CCN(C)CCc2ccc(NC(=O)c3cccc4c(=O)c5ccccc5[nH]c34)cc2)cc1`: the melting point amounted to 179 °C.
The figure for `CCOC(=O)c1cc(=O)c(-c2ccc(OCc3ccccc3)c(OCc3ccccc3)c2)co1` is 122 to 125 °C; for `Cn1ncc2[nH]c3ccc(Cc4ccccc4)cc3c(=O)c21` it is 282 °C.
For the compound `CCCNc1cc(=O)[nH]c(-c2ccccc2OCCC)n1`, the melting point fell in the range of 172 to 173 °C.
As for `CC(C)c1nc(CCOC2=CCC(C(C)(C)C)CC2)n(C)c1Sc1cc(Cl)cc(Cl)c1` (stereo not drawn), the melting point was 99.5 to 100 °C.
Turning to `Cn1nc(-c2ccc(C#N)cc2)cc(C(=O)N[C@H]2CC[C@H](C(=O)O)CC2)c1=O`, the melting point is 283 to 286 °C.
Then `Cc1[nH]c(=O)c2cc3nc(-c4ccncc4)[nH]c3cc2c1C`, with more than 300 °C; and `O=C(CNc1ccc(O)cc1)N1CCC(Cc2ccccc2)CC1`, with 138 to 140 °C.
Then `O=CNC1Cc2cc(Br)ccc2N(C=O)C1` (stereo not drawn), with 174 to 178 °C.
Then `CC(=O)Nc1ccc(-c2ccc3c(c2)CC(C(=O)O)O3)cc1` (stereo not drawn), with 274 to 276 °C; and `O=[N+]([O-])c1cccnc1Nc1ccc2c(c1)OCO2`, with 146 to 148 °C.
As to `CCOC(=O)CCCCCN1CCC[C@@H](NCc2ccccc2OC)[C@H]1c1ccccc1` (racemic), the melting point fell in the range of 80 to 95 °C.
Regarding `CC(C)(C)OC(=O)N1CCN(c2ccc3[nH]cc(Sc4ccccc4)c3c2)CC1`, the melting point is 174 °C.

As usually defined, the melting point is the temperature, or range, at which the solid turns liquid.
